According to patent US3956328A, “S-triazolo(1,5-a)pyridine derivative” (Kyorin Seiyaku Kabushiki Kaisha, priority 1973, dated 1976):
Counter-ions that a name gives are not always drawn.

Tests used:
[1] = tested on: heterologous PCA in guinea pigs; assay: Heterologous passive cutaneous anaphylaxis (PCA) in guinea pigs; format: in vivo, guinea pig; details: 25 mg/kg po, 30 min. before challenge; rabbit antiserum to egg albumin
Description: Male guinea pigs are passively sensitized by the intradermal injection of rabbit antiserum to egg albumin and challenged by the intravenous injection of egg albumin 4 hrs. after the sensitization. The test compounds are orally given 30 min. before the challenge.

[2] = tested on: histamine-induced asthma attack; assay: Inhibitory action on histamine-induced asthma attack in guinea pigs; format: in vivo, guinea pig; details: for z1 (statistical value): Mann and Whitney U test
Description: Inhibitory actions on histamine-induced asthma attack: Male guinea pigs, of about 300 g body weight are used. Asthma attack is provoked by an aerosol of 0.2% histamine dihydrochloride solution in physiological saline for 10 minutes. The inhibitory actions are examined by shock grades, No. of collapsed guinea pigs/No. of provoked guinea pigs and survival rate. The tested compounds are orally given 2 hrs. prior to spraying of histamine solution.
A/B: No. of collapsed guinea pigs/ No. of provoked guinea pigs.
Statistical comparisons were carried out with the Mann and Whtineys' U

[3] = tested on: BSA induced asthma in guinea pigs; assay: Inhibitory action on BSA-induced (experimentally allergic) asthma attack in passively sensitized guinea pigs; format: in vivo, guinea pig; details: for p (statistical significance vs non treatment) / z1 (statistical value vs non treatment): severity; for z1 (statistical value vs non treatment): Mann and Whitney U test
Description: The present compound is studied on asthma attacks induced by the antigen-antibody reaction in guinea pigs. The guinea pigs are sensitized passively by the injection of 0.1 to 0.3 ml /100g body weight of rabbit antiserum to BSA (bovine serum albumin) into the ear vein. Forty six hours after passive sensitization, the guinea pigs are orally given the tested compounds. Two hours after oral administration, the asthma attack is provoked by an aerosol injection (0.1 ml/min.) of 1% BSA solution in physiological saline into the plastic chamber in which the testing guinea pig is placed. The symptoms of the asthma attack are observed for 10 minutes and scored on the following shock indices. The shock indices are examined by the shock grades, No. of collapsed guinea pigs/No. of used animals and survival rate.
The shock grades are as follows:
1 slight stimulation of expiration
2 stimulation of expiration (labored expiration)
3 attack of singultation
4 the strongest attack of collapse and struggle
but recovery from collapse within 5 minutes
5 recovery from collapse within 5 to 10 minutes
6 interruption of expiration to death within 10
*Statistical comparisons were carried out with the Mann and Whitneys' U
z1 : The statistical value between non treatment and each tested
z2 : The statistical value between the present compound and […]

[4] = tested on: guinea pig tracheal chain strips; assay: Anti histaminic action: histamine-induced contraction of guinea pig tracheal chain strips; details: 4×10^^-5 M; Tyrodes solution
[5] = tested on: ddN mice; details: cited from earlier work
[6] = Solubility and hygroscopicity of the salt; format: physicochemical
[7] = tested on: guinea pig ileum; assay: Schultz-Dale reaction in guinea pig ileum sensitized actively with egg albumin; details: antigen egg albumin
Description: Male guinea pigs are actively sensitized and their ileum preparations are treated by Schultz-Dales method (J. Pharmacol. Exp. Ther., 4, 167, 1913). […] These preceeding pharmacological properties of the present compound are due to triazolo [1,5-a]pyridine.

[8] = antiserum 0.1 ml/100 g, 0.5 mg/kg p.o.
[9] = antiserum 0.1 ml/100 g, 1.0 mg/kg p.o.
[10] = antiserum 0.1 ml/100 g, 5.0 mg/kg p.o.
[11] = antiserum 0.2 ml/100 g, 5 mg/kg p.o.
[12] = antiserum 0.3 ml/100 g, 5 mg/kg p.o.

CN1CCCN(C(c2ccccc2)c2ccc(Cl)cc2)CC1 (stereo not drawn) [homochlorcyclizine, reference compound]
Inhibition % of extravasation of blue dye [1]: 41.7% | A/B: No. of collapsed / No. of provoked guinea pigs ([2]; 2.50 mg/kg p.o.): 5/11 | A/B: collapsed guinea pigs, number in parentheses (percentage) ([2]; 2.50 mg/kg p.o.): 45.5 | Survival rate (animals) ([2]; 2.50 mg/kg p.o.): 11/11 | Survival rate, number in parentheses (percentage) ([2]; 2.50 mg/kg p.o.): 100 | z1 (statistical value) ([2]; 2.50 mg/kg p.o. vs non treatment 2 (so in the source)): > 5 | significance of difference from non treatment 2 (so in the source) ([2]; 2.50 mg/kg p.o., homochlorcyclizine): markedly significant difference | A/B: No. of collapsed / No. of provoked guinea pigs ([2]; 10.0 mg/kg p.o.): 1/6 | A/B: collapsed guinea pigs, number in parentheses (percentage) ([2]; 10.0 mg/kg p.o.): 16.7 | Survival rate (animals) ([2]; 10.0 mg/kg p.o.): 6/6 | Survival rate, number in parentheses (percentage) ([2]; 10.0 mg/kg p.o.): 100 | z1 (statistical value) ([2]; 10.0 mg/kg p.o. vs non treatment 1 (so in the source)): 3.315 | p (significant difference from non treatment 1) ([2]; 10.0 mg/kg p.o., homochlorcyclizine): 0.0005 | A/B: No. of collapsed / No. of provoked guinea pigs [3, 8]: 4/6 | A/B: collapsed guinea pigs, percentage [3, 8]: 66.7% | Survival rate (animals) [3, 8]: 5/6 | Survival rate, percentage [3, 8]: 83.3% | A/B: No. of collapsed / No. of provoked guinea pigs [3, 9]: 6/10 | A/B: collapsed guinea pigs, percentage [3, 9]: 60% | Survival rate (animals) [3, 9]: 10/10 | Survival rate, percentage [3, 9]: 100% | A/B: No. of collapsed / No. of provoked guinea pigs [3, 10]: 1/6 | A/B: collapsed guinea pigs, percentage [3, 10]: 16.7% | Survival rate (animals) [3, 10]: 6/6 | Survival rate, percentage [3, 10]: 100% | A/B: No. of collapsed / No. of provoked guinea pigs [3, 11]: 4/6 | A/B: collapsed guinea pigs, percentage [3, 11]: 66.7% | Survival rate (animals) [3, 11]: 6/6 | Survival rate, percentage [3, 11]: 100% | A/B: No. of collapsed / No. of provoked guinea pigs [3, 12]: 1.5 | A/B: collapsed guinea pigs, percentage [3, 12]: 20% | Survival rate (animals) [3, 12]: 5/5 | Survival rate, percentage [3, 12]: 100% | p (statistical significance vs non treatment) [3, 8]: < 0.02 | z1 (statistical value vs non treatment) [3, 8]: 2.235 | p (statistical significance vs non treatment) [3, 9]: < 0.001 | z1 (statistical value vs non treatment) [3, 9]: 3.368 | p (statistical significance vs non treatment) [3, 10]: < 0.001 | z1 (statistical value vs non treatment) [3, 10]: 3.576 | p (statistical significance vs non treatment) [3, 11]: < 0.0001 | z1 (statistical value vs non treatment) [3, 11]: 3.993 | p (statistical significance vs non treatment) [3, 12]: < 0.002 | z1 (statistical value vs non treatment) [3, 12]: 3.23 | inhibitory rate on histamine-induced contraction [4]: 74% | acute LD50 (reported for standard drug) [5]: 353 mg/kg

c1ccc(C(c2ccccc2)N2CCN(CCCc3nc4ccccn4n3)CC2)cc1 [dihydrochloride salt]
solubility in alcohols ([6]; alcohols): soluble | hygroscopicity ([6]; fine needles from ethanol-petroleum ether): hydroscopic | solubility in water ([6]; water): soluble

c1ccc(C(c2ccccc2)N2CCN(CCCc3nc4ccccn4n3)CC2)cc1 [the present compound HCl salt]
Inhibition % of Schultz-Dale reaction ([7]; 2×10^^-7 M): 32.2% | Inhibition % of Schultz-Dale reaction ([7]; 3×10^^-7 M): 55.6% | Inhibition % of Schultz-Dale reaction ([7]; 5×10^^-7 M): 60.1%
